Measurements: patent US20240101572A1, “DIHYDROOXADIAZINONE COMPOUND AND PHARMACEUTICAL USE THEREOF” (Japan Tobacco Inc., priority 2022, published 2024)
pIC50: −log10 of the molar value. Like-named read-outs stand apart in the source and are kept apart here.

Columns and labels:
full-length human PLD1 = full-length human PLD1 (Homo sapiens (Human), UniProt Q13393); assay: Evaluation of human PLD1 enzyme inhibitory activity (Amplex Red / choline oxidase fluorescence); assay type: biochemical
Method in brief: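 N-terminally FLAG-tagged full-length human PLD1 (1-1036), expressed in Expi293F and FLAG-purified, incubated with compound (5% DMSO final) and 1,2-diheptanoyl-sn-glycero-3-phosphocholine for 60 min at room temperature in HEPES pH 7.5 buffer. Released choline detected by Amplex Red/choline oxidase/HRP fluorescence.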

full-length human PLD2 = full-length human PLD2 (Homo sapiens (Human), UniProt O14939); assay: Evaluation of human PLD2 enzyme inhibitory activity (Amplex Red / choline oxidase fluorescence); assay type: biochemical
Sequence of full-length human PLD2 (O14939 whole entry): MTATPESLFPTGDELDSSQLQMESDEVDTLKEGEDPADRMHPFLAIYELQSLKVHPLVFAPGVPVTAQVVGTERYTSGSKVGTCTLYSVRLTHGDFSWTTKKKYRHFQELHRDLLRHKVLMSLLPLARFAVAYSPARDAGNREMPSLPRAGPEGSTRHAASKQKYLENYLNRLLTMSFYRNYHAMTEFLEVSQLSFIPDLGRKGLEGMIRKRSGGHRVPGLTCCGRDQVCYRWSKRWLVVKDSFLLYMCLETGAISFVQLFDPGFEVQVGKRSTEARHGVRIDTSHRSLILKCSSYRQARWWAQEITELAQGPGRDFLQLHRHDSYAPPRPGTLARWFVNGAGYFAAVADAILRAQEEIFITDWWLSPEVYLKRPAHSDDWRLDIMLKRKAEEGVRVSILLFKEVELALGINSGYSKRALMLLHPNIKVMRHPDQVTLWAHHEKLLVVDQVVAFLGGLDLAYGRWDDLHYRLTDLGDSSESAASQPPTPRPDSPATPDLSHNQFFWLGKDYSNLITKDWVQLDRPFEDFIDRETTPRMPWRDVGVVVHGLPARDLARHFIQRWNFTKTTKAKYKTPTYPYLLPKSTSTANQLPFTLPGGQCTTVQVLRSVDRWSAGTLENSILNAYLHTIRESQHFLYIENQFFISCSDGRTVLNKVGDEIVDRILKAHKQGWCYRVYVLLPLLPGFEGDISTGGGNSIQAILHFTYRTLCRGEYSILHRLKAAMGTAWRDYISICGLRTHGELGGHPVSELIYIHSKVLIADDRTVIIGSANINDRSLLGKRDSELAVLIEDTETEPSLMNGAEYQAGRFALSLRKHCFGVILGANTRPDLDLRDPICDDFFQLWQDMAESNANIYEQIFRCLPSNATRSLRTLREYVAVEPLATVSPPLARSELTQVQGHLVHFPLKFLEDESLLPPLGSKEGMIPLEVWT
Method in brief: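 Enzyme was N-terminal FLAG-tagged full-length human PLD2 (1-933), expressed in Expi293F cells and anti-FLAG purified. Compound (5% DMSO final) was incubated with enzyme (6 nmol/L solution) and 1,2-diheptanoyl-PC (6 mmol/L solution) in HEPES pH 7.5, KCl, EGTA, MgCl2, NP-40, BSA buffer for 60 min at room temperature. Choline was detected with Amplex Red/choline oxidase/HRP.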

[1] = full-length human PLD1 enzyme, read-out: PLD1 IC50
[2] = full-length human PLD2 enzyme, read-out: PLD2 IC50
[3] = column 1 of continuation tables 2-12 to 2-14, read-out: human PLD1 enzyme inhibitory activity IC50
[4] = column 2 of continuation tables 2-12 to 2-14, read-out: human PLD2 enzyme inhibitory activity IC50

Sequence of full-length human PLD1 (Q13393 other isoform, or with tags, fused parts or gaps): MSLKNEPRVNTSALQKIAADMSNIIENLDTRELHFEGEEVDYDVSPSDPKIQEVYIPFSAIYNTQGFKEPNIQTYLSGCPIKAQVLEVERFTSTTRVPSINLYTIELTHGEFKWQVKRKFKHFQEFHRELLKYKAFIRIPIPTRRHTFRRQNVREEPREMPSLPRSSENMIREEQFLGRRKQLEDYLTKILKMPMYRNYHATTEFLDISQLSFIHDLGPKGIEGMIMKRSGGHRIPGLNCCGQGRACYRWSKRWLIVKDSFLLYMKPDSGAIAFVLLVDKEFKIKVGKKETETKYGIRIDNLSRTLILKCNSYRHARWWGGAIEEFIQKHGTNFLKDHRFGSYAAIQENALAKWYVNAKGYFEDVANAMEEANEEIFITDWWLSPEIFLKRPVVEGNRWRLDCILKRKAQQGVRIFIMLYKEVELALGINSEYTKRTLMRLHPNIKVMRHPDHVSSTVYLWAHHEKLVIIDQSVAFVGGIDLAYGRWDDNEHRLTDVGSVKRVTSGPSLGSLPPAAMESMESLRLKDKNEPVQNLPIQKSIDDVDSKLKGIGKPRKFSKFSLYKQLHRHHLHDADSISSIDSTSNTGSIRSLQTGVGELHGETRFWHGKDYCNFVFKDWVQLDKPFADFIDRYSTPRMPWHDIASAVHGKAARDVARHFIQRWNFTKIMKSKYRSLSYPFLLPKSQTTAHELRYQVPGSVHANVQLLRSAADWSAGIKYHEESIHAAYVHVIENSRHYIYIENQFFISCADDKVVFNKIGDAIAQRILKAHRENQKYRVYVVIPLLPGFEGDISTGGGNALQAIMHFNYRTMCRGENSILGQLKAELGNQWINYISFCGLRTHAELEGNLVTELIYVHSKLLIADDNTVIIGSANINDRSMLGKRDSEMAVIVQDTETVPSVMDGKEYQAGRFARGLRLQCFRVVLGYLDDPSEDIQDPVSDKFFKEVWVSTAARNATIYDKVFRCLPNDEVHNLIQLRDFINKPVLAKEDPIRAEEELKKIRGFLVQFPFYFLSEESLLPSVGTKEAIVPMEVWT

Row | SMILES | pIC50 (full-length human PLD1; [1]) | pIC50 (full-length human PLD2; [2]) | other results
1 | C[C@@H](CN1CCC2(CC1)OC(=O)NN=C2c1ccc(C#N)cc1Br)NC(=O)c1cc(Cl)no1 [Example 2-061] | 7.85 | > 8.00 | 
2 | Cc1cc(C(=O)N[C@@H](C)C[C@H]2CC[C@]3(CC2)OC(=O)NN=C3c2cnc(N3CCOCC3)cc2Cl)[nH]n1 [Example 226] | 7.74 | > 8.00 | 
3 | C[C@@H](C[C@H]1CC[C@]2(CC1)OC(=O)NN=C2c1ccc(F)cc1Cl)NC(=O)c1cc2ccccc2o1 [Example 46] | 7.92 | > 8.00 | 
4 | C[C@@H](CN1CCC2(CC1)OC(=O)NN=C2c1cc(C#N)ccc1Br)NC(=O)/C=C/C(F)(F)F [Example 2-003] | 7.42 | 7.92 | 
5 | CNC(=O)C(=O)N[C@@H](C)C[C@H]1CC[C@]2(CC1)OC(=O)NN=C2c1ccc(F)cc1C(C)C [Example 133] | 7.54 | 7.51 | 
6 | [2H]C([2H])([2H])NC(=O)C(=O)N[C@@H](C)C[C@]1(C#N)CC[C@@]2(CC1)OC(=O)NN=C2c1cc(F)c(F)cc1Br [Example 2-140] |  |  | pIC50 (full-length human PLD1; [3]): 7.77; pIC50 (full-length human PLD2; [4]): > 8.00
7 | C[C@@H](C[C@H]1CC[C@]2(CC1)OC(=O)NN=C2c1ccc(OCC(C)(C)O)cc1Br)NC(=O)c1cc(Cl)no1 [Example 131] | 8.00 | > 8.00 | 
8 | CNC(=O)C(=O)N[C@@H](C)C[C@H]1CC[C@]2(CC1)OC(=O)NN=C2c1cccnc1 [Example 17] | 6.09 | 5.98 | 
9 | Cc1cc(C(=O)N[C@@H](C)C[C@H]2CC[C@]3(CC2)OC(=O)NN=C3c2ccc(F)cc2)[nH]n1 [Example 5] | 6.79 | 6.77 | 
10 | C[C@@H](CN1CCC2(CC1)OC(=O)NN=C2c1cc(C#N)ccc1Br)NC(=O)c1cncn1C [Example 2-053] | 6.17 | 6.61 | 
11 | C[C@@H](CN1CCC2(CC1)OC(=O)NN=C2c1ccc(S(C)(=O)=O)cc1Cl)NC(=O)c1cc2cc(F)ccc2o1 [Example 116] | 7.37 | 7.43 | 
12 | CNC(=O)C(=O)N[C@@H](C)C[C@H]1CC[C@]2(CC1)OC(=O)NN=C2c1ccccc1Br [Example 26] | > 8.00 | > 8.00 | 
13 | CNC(=O)C(=O)N[C@@H](C)C[C@H]1CC[C@]2(CC1)OC(=O)NN=C2c1cnc(N2CC(F)(F)C2)cc1C [Example 228] | 7.55 | > 8.00 | 
14 | Cc1cc(C(=O)N[C@@H](C)CN2CCC3(CC2)OC(=O)NN=C3c2ccc(Br)cc2C(F)(F)F)[nH]n1 [Example 331] | 7.49 | 7.66 | 
15 | C[C@@H](C[C@H]1CC[C@]2(CC1)OC(=O)NN=C2c1ccc(C#N)cc1Br)NC(=O)c1cc(C2CC2)n[nH]1 [Example 2-072] | 7.85 | 7.62 | 
16 | Cc1cc(C(=O)N[C@@H](C)CN2CCC3(CC2)OC(=O)NN=C3c2cc(C#N)ccc2Br)[nH]n1 [Example 312] | 7.54 | > 8.00 | 
17 | CNC(=O)C(=O)N[C@@H](C)[C@H](C)[C@H]1CC[C@]2(CC1)OC(=O)NN=C2c1cc(C#N)ccc1Br [Example 338] | 7.62 | > 8.00 | 
18 | C[C@@H](C[C@H]1CC[C@]2(CC1)OC(=O)NN=C2c1cc(OC(F)(F)F)ccc1Br)NC(=O)C(=O)NC1CC1 [Example 295] | > 8.00 | > 8.00 | 
19 | Cc1ccncc1C1=NNC(=O)O[C@]12CC[C@@H](C[C@H](C)NC(=O)c1nc3ccccc3[nH]1)CC2 [Example 146] | 7.70 | > 8.00 | 
20 | [2H]C([2H])([2H])NC(=O)C(=O)N[C@@H](C)C[C@]1(C#N)CC[C@@]2(CC1)OC(=O)NN=C2c1cc(OC(F)F)ccc1Br [Example 2-113] |  |  | pIC50 (full-length human PLD1; [3]): 7.85; pIC50 (full-length human PLD2; [4]): > 8.00
21 | C[C@@H](CN1CCC2(CC1)OC(=O)NN=C2c1ccc(F)cc1Br)NC(=O)c1cc2cc(F)ccc2[nH]1 [Example 2] | 7.70 | > 8.00 | 
22 | [2H]C([2H])([2H])NC(=O)C(=O)N[C@@H](C)C[C@]1(OC)CC[C@@]2(CC1)OC(=O)NN=C2c1cc(F)ccc1Br [Example 2-131] |  |  | pIC50 (full-length human PLD1; [3]): 7.82; pIC50 (full-length human PLD2; [4]): > 8.00
23 | Cc1ccc(C(=O)N[C@@H](C)C[C@H]2CC[C@]3(CC2)OC(=O)NN=C3c2ccc(F)cc2Br)nn1 [Example 252] | 6.76 | 6.47 | 
24 | CNC(=O)C(=O)N[C@@H](C)CN1CCC2(CC1)OC(=O)NN=C2c1ccc(Cl)cc1C [Example 216] | 7.54 | 7.72 | 
25 | C[C@@H](CN1CCC2(CC1)OC(=O)NN=C2c1cc(C#N)ccc1Br)NC(=O)c1cc(F)c[nH]1 [Example 302] | 7.77 | > 8.00 | 

Row | SMILES | pIC50 (full-length human PLD1; [1]) | pIC50 (full-length human PLD2; [2]) | other results
26 | C[C@@H](C[C@H]1CC[C@]2(CC1)OC(=O)NN=C2c1ccc(F)cc1Br)NC(=O)C(=O)NC1CC1 [Example 203] | 7.92 | > 8.00 | 
27 | CNC(=O)C(=O)N[C@@H](C)CN1CCC2(CC1)OC(=O)NN=C2c1ccccc1SC(F)(F)F [Example 2-021] | 7.57 | 7.82 | 
28 | CNC(=O)C(=O)N[C@@H](C)C[C@H]1CC[C@]2(CC1)OC(=O)NN=C2c1cc(N2CCOCC2)ccc1C [Example 256] | 7.57 | > 8.00 | 
29 | CNC(=O)C(=O)N[C@@H](C)C[C@H]1CC[C@]2(CC1)OC(=O)NN=C2c1cnc(OCC(F)(F)F)cc1C [Example 170] | 7.72 | > 8.00 | 
30 | Cc1cc(C(=O)N[C@@H](C)C[C@H]2CC[C@]3(CC2)OC(=O)NN=C3c2ccccc2OC(F)(F)F)[nH]n1 [Example 110] | 7.08 | 7.00 | 
31 | [2H]C([2H])([2H])NC(=O)C(=O)N[C@@H](C)C[C@]1(C#N)CC[C@@]2(CC1)OC(=O)NN=C2c1ccc(F)cc1Br [Example 2-134] |  |  | pIC50 (full-length human PLD1; [3]): 7.74; pIC50 (full-length human PLD2; [4]): > 8.00
32 | CNC(=O)C(=O)N[C@@H](C)C[C@H]1CC[C@]2(CC1)OC(=O)NN=C2c1ccc(C#N)cc1C [Example 152] | 7.64 | 7.89 | 
33 | Cc1cc(F)ccc1C1=NNC(=O)O[C@]12CC[C@@H](C[C@H](C)NC(=O)N1CC[C@H](c3ccccc3)C1)CC2 [Example 137] | 6.30 | 5.80 | 
34 | C=C(OCC)c1ccc(C2=NNC(=O)O[C@]23CC[C@@H](C[C@H](C)NC(=O)C(=O)NC)CC3)c(C)c1 [Example 163] | > 8.00 | > 8.00 | 
35 | C[C@@H](C[C@H]1CC[C@]2(CC1)OC(=O)NN=C2c1ccc(F)cc1Br)NC(=O)C(F)F [Example 211] | 6.99 | 6.37 | 
36 | CNC(=O)C(=O)N[C@@H](C)C[C@]1(C#N)CC[C@@]2(CC1)OC(=O)NN=C2c1cc(C#N)ccc1Br [Example 2-040] | 7.68 | > 8.00 | 
37 | C[C@@H](C[C@H]1CC[C@]2(CC1)OC(=O)NN=C2c1ccc(F)cc1Cl)NC(=O)C(=O)NC1CC1 [Example 70] | 7.55 | 7.70 | 
38 | C[C@@H](C[C@H]1CC[C@]2(CC1)OC(=O)NN=C2c1cc(Cl)ccc1Cl)NC(=O)c1cc2ccccn2n1 [Example 313] | 7.64 | 7.60 | 
39 | [2H]C([2H])([2H])NC(=O)C(=O)N[C@@H](C)C[C@]1(C#N)CC[C@@]2(CC1)OC(=O)NN=C2c1cc(OC(F)F)c(F)cc1Br [Example 2-138] |  |  | pIC50 (full-length human PLD1; [3]): 7.85; pIC50 (full-length human PLD2; [4]): > 8.00
40 | C[C@@H](C[C@H]1CC[C@]2(CC1)OC(=O)NN=C2c1cnc(N2CCOCC2)cc1Cl)NC(=O)N1CCn2nccc2C1 [Example 275] | 7.60 | > 8.00 | 
41 | CNC(=O)C(=O)N[C@@H](C)C[C@H]1CC[C@]2(CC1)OC(=O)NN=C2c1cnc(OC)cc1C [Example 154] | 7.57 | 7.85 | 
42 | Cc1cc(C(=O)N[C@@H](C)C[C@H]2CC[C@]3(CC2)OC(=O)NN=C3c2ccc(F)cc2Br)[nH]n1 [Example 12] | > 8.00 | > 8.00 | 
43 | Cc1cc(C(=O)N[C@@H](C)C[C@H]2CC[C@]3(CC2)OC(=O)NN=C3c2cnc(Cl)cc2N2CCC(F)(F)C2)[nH]n1 [Example 223] | 6.40 | 6.61 | 
44 | COc1cc(C)c(C2=NNC(=O)O[C@]23CC[C@@H](C[C@H](C)NC(=O)N2CCn4nccc4C2)CC3)cn1 [Example 237] | 7.47 | > 8.00 | 
45 | [2H]C([2H])([2H])NC(=O)C(=O)N[C@@H](C)C[C@]1(C#N)CC[C@@]2(CC1)OC(=O)NN=C2c1cc(OC(F)(F)F)ccc1Br [Example 2-132] |  |  | pIC50 (full-length human PLD1; [3]): 7.96; pIC50 (full-length human PLD2; [4]): > 8.00
46 | Cc1cc(F)ccc1C1=NNC(=O)O[C@]12CC[C@@H](C[C@H](C)NC(=O)N1CCc3ccccc3C1)CC2 [Example 155] | 7.85 | > 8.00 | 
47 | C[C@@H](C[C@H]1CC[C@]2(CC1)OC(=O)NN=C2c1cccc2c1OCC2)NC(=O)c1cc(Cl)no1 [Example 108] | 7.60 | 7.42 | 
48 | CNC(=O)C(=O)N[C@@H](C)C[C@H]1CC[C@]2(CC1)OC(=O)NN=C2c1cnc(C(=O)O)cc1C [Example 186] |  |  | inhibition at 10 µM (full-length human PLD1; 10 μM compound, read-out: PLD1 inhibition rate at 10 μM): 33%; inhibition at 10 µM (full-length human PLD1; read-out: inhibition rate of PLD1 at 10 μM compound): 33%; inhibition at 10 µM (full-length human PLD2; 10 μM compound, read-out: PLD2 inhibition rate at 10 μM): 18%; inhibition at 10 µM (full-length human PLD2; read-out: inhibition rate of PLD2 at 10 μM compound): 18%
49 | CNC(=O)C(=O)N[C@@H](C)C[C@H]1CC[C@]2(CC1)OC(=O)NN=C2c1cnc(N2CCC(F)(F)C2)cc1Cl [Example 241] | 7.77 | > 8.00 | 
50 | C[C@@H](C[C@H]1CC[C@]2(CC1)OC(=O)NN=C2c1ccc(C#N)cc1Br)NC(=O)N1CCn2nncc2C1 [Example 271] | 7.74 | > 8.00 | 
